Experimental data taken from patent US20240109843A1, “BENZALDEHYDE COMPOUNDS WITH DIRECT POLYMER DESTABILIZING EFFECTS TO TREAT SICKLE CELL DISEASE” (VIRGINIA COMMONWEALTH UNIVERSITY, priority 2018, published 2024).

Legend:
[1] = molecular target: T1, sickle Hb (Homo sapiens, UniProt P69905); test: Oxygen equilibrium (P50 shift) of lysates from treated sickle blood; format: cell-based; conditions: 0.5, 1 and 2 mM, SS blood
T1 construct: Blood suspensions from subjects with homozygous SCD; from tissue; host or cells: blood suspensions (20% hematocrit) from donors with homozygous SCD; lysates of the treated red cells
Method: Blood suspensions from subjects with homozygous SCD (resuspended in Hemox™ buffer to a final hematocrit 20%) were incubated under air in the absence or presence of the compounds (0.5 mM, 1 mM and 2 mM) at 37° C. for 1 h to ensure that binding had attained equilibrium. The suspensions were then incubated under hypoxic conditions (2.5% oxygen/97.5% nitrogen) at 37° C. for 1 h. Aliquot samples were fixed with 2% glutaraldehyde solution without exposure to air, and then subjected to microscopic morphological analysis of bright field images (at 40× magnification) of single layer cells on an Olympus BX40 microscope fitted with an Infinity Lite B camera (Olympus), and the coupled Image Capture software. The residual samples were washed in phosphate-buffer saline, and hemolyzed in hypotonic lysis buffer for subsequent Hb-modification and oxygen equilibrium analyses.
For oxygen equilibrium studies, approximately 100 μL aliquot samples from the above clarified lysate were added to 4 mL of 0.1M potassium phosphate buffer, pH 7.0, in cuvettes and subjected to hemoximetry analysis using a Hemox™ Analyzer (TCS Scientific Corp.) to assess P50 shifts. Degree of P50 shift (ΔP50) was expressed as percentage fractions of control DMSO-treated samples.

[2] = system: RBCs from donors with homozygous SCD; test: Sickle inhibition in SS blood suspensions under hypoxia (2.5% oxygen); format: cell-based; conditions: Homo sapiens, 2 mM, 4 biological replicates, read-out: % Sickling Inhibition (Hypoxia)
Method: All compounds (Comp 1-13) and comparator molecules (VZHE-039, PP-14, INN-310, and Voxelotor) were evaluated following established procedures. Blood samples from individual donors with homozygous SCD (obtained with informed consent) were diluted using Hemox buffer solution with the addition of glucose (10 mM) and BSA (0.2%) to adjust hematocrit of the blood suspensions to 20%, which standardizes the procedure to normalize the ratio of RBCs to drug, for assay consistency and reproducibility. Briefly, blood suspensions were incubated under room air in the presence of various concentrations of test compounds (0-2 mM) at 37° C. for 1 hour in 96-well round bottom plates. Subsequently, the suspensions were incubated with a hypoxic gas mixture (2.5% Oxygen gas/balance Nitrogen gas) at 37° C. for up to 2 hours prior to fixation with 2% glutaraldehyde solution without exposure to air. The fixated blood aliquots were evaluated by microscopic morphological analysis (image analysis on Image J software) to identify the proportion of sickled and non-sickled RBCs, and sickle inhibition calculated based on the % change from negative control (DMSO).

[3] = molecular target: T2, Hb (Homo sapiens, UniProt P69905); test: Affinity (KD) for Hb; format: binding
Target sequence in this assay (P69905 2-142 limits assumed): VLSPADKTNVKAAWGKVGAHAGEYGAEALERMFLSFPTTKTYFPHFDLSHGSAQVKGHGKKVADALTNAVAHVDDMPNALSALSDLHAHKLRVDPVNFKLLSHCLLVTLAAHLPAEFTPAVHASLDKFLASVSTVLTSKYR
Target sequence in this assay (P68871 2-147 partner limits assumed): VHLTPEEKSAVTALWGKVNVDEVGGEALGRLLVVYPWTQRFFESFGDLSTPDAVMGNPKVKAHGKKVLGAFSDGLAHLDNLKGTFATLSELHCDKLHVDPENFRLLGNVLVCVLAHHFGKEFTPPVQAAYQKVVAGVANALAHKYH

[4] = Single-dose oral pharmacokinetics in rats; format: in vivo, Sprague Dawley rats; conditions: oral administration, data not shown
Method: Single doses of each compound were administered as oral suspensions by gavage in 0.5% carboxy methylcellulose at 100 mg/kg. Whole blood levels were collected for at least 72 hours after dose administration. Bioanalyses were performed with liquid chromatography-tandem mass spectrometry […].
Single-dose pharmacokinetics (PK) in male Sprague Dawley (SD) rats (n=4) were assessed for each compound, and the maximum or peak whole blood concentration and area under the curve are shown in Table 5.

[5] = molecular target: T2, Hb; test: Hb modification (drug-adduct formation) in SS blood suspensions by cation-exchange HPLC; format: binding; design: Blood suspensions from subjects with homozygous SCD; from tissue; host or cells: blood suspensions (20% hematocrit) from donors with homozygous SCD; lysates of the treated red cells; conditions: 2 mM, 4 biological replicates
Outline: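 Homozygous SCD blood at 20% hematocrit in Hemox buffer with glucose and BSA was incubated with compound (0-2 mM) 1 h at 37° C in air, then up to 2 h hypoxia (2.5% O2). Lysates, with or without 50 mM sodium borohydride reduction, were analysed by weak cation-exchange HPLC at A410 nm for Hb-drug adducts.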
Target sequence in this assay (P69905 2-142): as the sequence (P69905 2-142 limits assumed) above
Target sequence in this assay (P68871 with tags, fused parts or gaps E7V partner): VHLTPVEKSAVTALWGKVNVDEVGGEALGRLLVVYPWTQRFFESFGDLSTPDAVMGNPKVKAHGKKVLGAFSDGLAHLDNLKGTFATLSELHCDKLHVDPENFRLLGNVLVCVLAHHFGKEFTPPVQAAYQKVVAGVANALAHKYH

T1 sequence (P69905 2-142 limits assumed): as the sequence (P69905 2-142 limits assumed) above

SMILES: COC(=O)c1ccc(COc2cccc(O)c2C=O)cn1 [PP14, Methyl 5-((2-formyl-3-hydroxyphenoxy)methyl)picolinate]
- increase of Hb affinity for oxygen in sickle blood (in words) [1]: only marginally increasing Hb affinity for oxygen
- inhibition at 2000 µM [2]: 83.1 ± 6.9%
- Kd [3]: 150 µM
- metabolism upon oral administration [4]: rapidly metabolizes into its carboxylic acid metabolite
- Hb Modification (%) [5]: 85.3 ± 11.3%
